Source: ChEMBL document CHEMBL6114951, “Discovery of 3-amide-pyrimidine-based derivatives as potential fms-like tyrosine receptor kinase 3 (FLT3) inhibitors for treating acute myelogenous leukemia” (Bioorg Med Chem Lett, 2025)
One block for each compound: values may come before it. The source made the active and inactive calls. The rule behind the calls is not given here.

How the values were obtained:
HCT-116 = experiment: cells; settings: Homo sapiens
Description: Antiproliferative activity against human HCT-116 cells by CCK-8 assay

A549 = experiment: cells; settings: Homo sapiens
Description: Antiproliferative activity against human A549 cells by CCK-8 assay

MV4-11 [1] = experiment: cells; settings: Homo sapiens
Description: Antiproliferative activity against human MV4-11 cells by CCK-8 assay

[2] = Effect on total FLT3 expression in human MV4-11 cells at 0.2 uM measured after 24 hrs by Western blot analysis; assay type: toxicity, cell-based; settings: mv4-11, 24 h
MV4-11 [3] = experiment: Induction of apoptosis in human MV4-11 cells assessed as viable cells at 0.2 uM measured after 24 hrs by Annexin V-FITC/propidium iodide staining based flow cytometry (reference value: 92.7%); assay type: functional; settings: read-out: Activity
in vitro = settings: human, HEK293T cells
Description: Cytotoxicity against HEK293T cells by CCK-8 assay

[4] = Effect on total STAT5 expression in human MV4-11 cells at 0.2 uM measured after 24 hrs by Western blot analysis; assay type: toxicity, cell-based; settings: mv4-11, 24 h
MV4-11 [5] = experiment: Induction of apoptosis in human MV4-11 cells assessed as necrotic cells at 0.2 uM measured after 24 hrs by Annexin V-FITC/propidium iodide staining based flow cytometry (reference value: 0.2%); assay type: functional
MV4-11 [6] = experiment: Cell cycle arrest in human MV4-11 cells assessed as accumulation at S-phase at 0.2 uM measured after 24 hrs by propidium iodide staining based flow cytometry (reference value: 20.83%); assay type: functional
MV4-11 [7] = experiment: Cell cycle arrest in human MV4-11 cells assessed as accumulation at G1-phase at 0.2 uM measured after 24 hrs by propidium iodide staining based flow cytometry (reference value: 70.31%); assay type: functional
[8] = biological target: Mast/stem cell growth factor receptor Kit (Homo sapiens, UniProt P10721)
Mast/stem cell growth factor receptor Kit, sequence (P10721 whole entry): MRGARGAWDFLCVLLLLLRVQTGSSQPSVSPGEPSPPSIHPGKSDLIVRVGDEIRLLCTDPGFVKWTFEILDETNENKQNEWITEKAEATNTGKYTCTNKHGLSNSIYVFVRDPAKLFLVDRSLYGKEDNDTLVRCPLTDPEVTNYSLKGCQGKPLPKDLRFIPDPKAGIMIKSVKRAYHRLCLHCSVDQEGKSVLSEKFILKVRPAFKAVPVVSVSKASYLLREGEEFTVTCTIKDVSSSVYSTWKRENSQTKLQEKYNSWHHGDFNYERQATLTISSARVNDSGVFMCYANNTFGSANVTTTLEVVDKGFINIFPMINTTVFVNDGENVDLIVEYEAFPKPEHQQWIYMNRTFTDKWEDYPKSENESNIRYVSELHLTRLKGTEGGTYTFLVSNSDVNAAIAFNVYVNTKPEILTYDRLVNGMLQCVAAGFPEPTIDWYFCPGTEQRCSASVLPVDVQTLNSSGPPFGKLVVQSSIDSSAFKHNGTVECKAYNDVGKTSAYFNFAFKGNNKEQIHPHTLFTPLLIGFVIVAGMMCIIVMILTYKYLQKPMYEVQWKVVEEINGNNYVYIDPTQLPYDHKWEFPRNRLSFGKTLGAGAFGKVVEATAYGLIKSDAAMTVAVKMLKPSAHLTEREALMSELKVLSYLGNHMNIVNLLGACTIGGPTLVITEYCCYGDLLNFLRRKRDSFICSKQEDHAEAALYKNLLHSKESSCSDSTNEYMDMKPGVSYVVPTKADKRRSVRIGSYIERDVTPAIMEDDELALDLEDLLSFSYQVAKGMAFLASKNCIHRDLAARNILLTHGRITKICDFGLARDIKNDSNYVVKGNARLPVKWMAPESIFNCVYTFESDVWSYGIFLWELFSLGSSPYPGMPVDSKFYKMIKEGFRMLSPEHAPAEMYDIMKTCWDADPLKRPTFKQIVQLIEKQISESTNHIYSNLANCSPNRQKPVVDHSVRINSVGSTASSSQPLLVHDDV

MV4-11 [9] = experiment: Induction of mitochondrial membrane potential loss in human MV4-11 cells assessed as cells with high MMP (aggregates) at 0.2 uM measured after 24 hrs by JC-1 staining based flow cytometry (reference value: 97%); assay type: functional
[10] = Effect on total ERK expression in human MV4-11 cells at 0.2 uM measured after 24 hrs by Western blot analysis; assay type: toxicity, cell-based; settings: mv4-11, 24 h
MV4-11 [11] = experiment: Cell cycle arrest in human MV4-11 cells assessed as accumulation at G2-phase at 0.2 uM measured after 24 hrs by propidium iodide staining based flow cytometry (reference value: 8.87%); assay type: functional
MV4-11 [12] = experiment: Induction of mitochondrial membrane potential loss in human MV4-11 cells assessed as cells with low MMP (monomers) at 0.2 uM measured after 24 hrs by JC-1 staining based flow cytometry (reference value: 2.9%); assay type: functional
MV4-11 [13] = experiment: Induction of apoptosis in human MV4-11 cells assessed as early apoptotic cells at 0.2 uM measured after 24 hrs by Annexin V-FITC/propidium iodide staining based flow cytometry (reference value: 5.2%); assay type: functional
MV4-11 [14] = experiment: Induction of apoptosis in human MV4-11 cells assessed as late apoptotic cells at 0.2 uM measured after 24 hrs by Annexin V-FITC/propidium iodide staining based flow cytometry (reference value: 2%); assay type: functional
[15] = Effect on total AKT expression in human MV4-11 cells at 0.2 uM measured after 24 hrs by Western blot analysis; assay type: toxicity, cell-based; settings: mv4-11, 24 h
MV4-11 [16] = experiment: Cell cycle arrest in human MV4-11 cells assessed as accumulation at G1-phase at 2 uM measured after 24 hrs by propidium iodide staining based flow cytometry (reference value: 70.31%); assay type: functional
MV4-11 [17] = experiment: Induction of morphological changes in human MV4-11 cells assessed as cell wrinkling; assay type: functional, cell-based
c-Kit = c-Kit (Homo sapiens, UniProt P10721); experiment: Inhibition of c-Kit (unknown origin) at 100 uM relative to control; assay type: toxicity
c-Kit, sequence (P10721 whole entry, the tested form may be a part): as the sequence (P10721 whole entry) above

MV4-11 [18] = experiment: Induction of morphological changes in human MV4-11 cells assessed as cell fragmentation; assay type: functional, cell-based
MV4-11 [19] = experiment: Induction of apoptosis in human MV4-11 cells measured after 24 hrs by Annexin V-FITC/propidium iodide staining based flow cytometry; assay type: functional, cell-based; settings: dose 0.2-5 µM
MV4-11 [20] = experiment: Induction of mitochondrial membrane potential loss in human MV4-11 cells measured after 24 hrs by JC-1 staining based flow cytometry; assay type: functional, cell-based; settings: dose 0.2-10 µM
MV4-11 [21] = experiment: Cell cycle arrest in human MV4-11 cells assessed as accumulation at G2-phase at 10 uM measured after 24 hrs by propidium iodide staining based flow cytometry (reference value: 8.87%); assay type: functional
MV4-11 [22] = experiment: Induction of apoptosis in human MV4-11 cells assessed as necrotic cells at 5 uM measured after 24 hrs by Annexin V-FITC/propidium iodide staining based flow cytometry (reference value: 0.2%); assay type: functional
MV4-11 [23] = experiment: Cell cycle arrest in human MV4-11 cells assessed as accumulation at S-phase at 2 uM measured after 24 hrs by propidium iodide staining based flow cytometry (reference value: 20.83%); assay type: functional
MV4-11 [24] = experiment: Induction of apoptosis in human MV4-11 cells assessed as late apoptotic cells at 5 uM measured after 24 hrs by Annexin V-FITC/propidium iodide staining based flow cytometry (reference value: 2%); assay type: functional
MV4-11 [25] = experiment: Cell cycle arrest in human MV4-11 cells assessed as accumulation at G1-phase at 10 uM measured after 24 hrs by propidium iodide staining based flow cytometry (reference value: 70.31%); assay type: functional
MV4-11 [26] = experiment: Induction of mitochondrial membrane potential loss in human MV4-11 cells assessed as cells with high MMP (aggregates) at 2 uM measured after 24 hrs by JC-1 staining based flow cytometry (reference value: 97%); assay type: functional
MV4-11 [27] = experiment: Induction of apoptosis in human MV4-11 cells assessed as early apoptotic cells at 5 uM measured after 24 hrs by Annexin V-FITC/propidium iodide staining based flow cytometry (reference value: 5.2%); assay type: functional
MV4-11 [28] = experiment: Induction of mitochondrial membrane potential loss in human MV4-11 cells assessed as cells with high MMP (aggregates) at 10 uM measured after 24 hrs by JC-1 staining based flow cytometry (reference value: 97%); assay type: functional
MV4-11 [29] = experiment: Cell cycle arrest in human MV4-11 cells assessed as increase in accumulation at G0/G1-phase measured after 24 hrs by propidium iodide staining based flow cytometry; assay type: functional; settings: dose 0.2-10 µM
MV4-11 [30] = experiment: Induction of apoptosis in human MV4-11 cells assessed as viable cells at 2 uM measured after 24 hrs by Annexin V-FITC/propidium iodide staining based flow cytometry (reference value: 92.7%); assay type: functional; settings: read-out: Activity
MV4-11 [31] = experiment: Induction of apoptosis in human MV4-11 cells assessed as early apoptotic cells at 2 uM measured after 24 hrs by Annexin V-FITC/propidium iodide staining based flow cytometry (reference value: 5.2%); assay type: functional
MV4-11 [32] = experiment: Induction of mitochondrial membrane potential loss in human MV4-11 cells assessed as cells with low MMP (monomers) at 10 uM measured after 24 hrs by JC-1 staining based flow cytometry (reference value: 2.9%); assay type: functional
MV4-11 [33] = experiment: Induction of apoptosis in human MV4-11 cells assessed as viable cells at 5 uM measured after 24 hrs by Annexin V-FITC/propidium iodide staining based flow cytometry (reference value: 92.7%); assay type: functional; settings: read-out: Activity
MV4-11 [34] = experiment: Induction of mitochondrial membrane potential loss in human MV4-11 cells assessed as cells with low MMP (monomers) at 2 uM measured after 24 hrs by JC-1 staining based flow cytometry (reference value: 2.9%); assay type: functional
MV4-11 [35] = experiment: Induction of apoptosis in human MV4-11 cells assessed as late apoptotic cells at 2 uM measured after 24 hrs by Annexin V-FITC/propidium iodide staining based flow cytometry (reference value: 2%); assay type: functional
MV4-11 [36] = experiment: Cell cycle arrest in human MV4-11 cells assessed as accumulation at G2-phase at 2 uM measured after 24 hrs by propidium iodide staining based flow cytometry (reference value: 8.87%); assay type: functional
MV4-11 [37] = experiment: Cell cycle arrest in human MV4-11 cells assessed as accumulation at S-phase at 10 uM measured after 24 hrs by propidium iodide staining based flow cytometry (reference value: 20.83%); assay type: functional
MV4-11 [38] = experiment: Induction of apoptosis in human MV4-11 cells assessed as necrotic cells at 2 uM measured after 24 hrs by Annexin V-FITC/propidium iodide staining based flow cytometry (reference value: 0.2%); assay type: functional

IC50 (HCT-116): 23.4 µM
IC50 (A549): 20 µM
IC50 (MV4-11 [1]): 5.03 µM
SMILES: CCNC(=O)c1c(C)nc(NC2CCN(C)CC2)nc1Nc1ccc(Oc2ccccc2)cc1

IC50 (in vitro): 9.67 µM
IC50 [8]: 0.0038 µM
IC50 (HCT-116): 3.13 µM
IC50 (A549): 0.14 µM
IC50 (MV4-11 [1]): 0.003 µM
SMILES: CN1CCC(Nc2nc(Nc3ccc(Oc4ccccc4)cc3)c3c(=O)[nH]cc(Br)c3n2)CC1 [DENFIVONTINIB]
Activity [2]: Non-toxic
viability at 0.2 µM (MV4-11 [3]): 15.8%
Activity [4]: Non-toxic
Activity (MV4-11 [5]): 0.7%
Activity (MV4-11 [6]): 6.52%
Activity (MV4-11 [7]): 89.36%
Activity (MV4-11 [9]): 85.1%
Activity [10]: Non-toxic
Activity (MV4-11 [11]): 4.11%
Activity (MV4-11 [12]): 14.6%
Activity (MV4-11 [13]): 49.6%
Activity (MV4-11 [14]): 33.9%
Activity [15]: Non-toxic

IC50 (HCT-116): 1.9 µM
IC50 (A549): 2.88 µM
IC50 (MV4-11 [1]): 2.09 µM
SMILES: CN1CCC(Nc2ncc(C(N)=O)c(Nc3ccc(Oc4ccccc4)cc3)n2)CC1

IC50 (HCT-116): > 50 µM
IC50 (A549): > 50 µM
IC50 (MV4-11 [1]): 30.9 µM
SMILES: N#Cc1cnc(N2CCCC2)nc1Nc1ccc(Oc2ccccc2)cc1

IC50 (HCT-116): 24.2 µM
IC50 (A549): 9.87 µM
IC50 (MV4-11 [1]): 6.96 µM
SMILES: CC(=O)N1CCC(Nc2nc(Nc3ccc(Oc4ccccc4)cc3)c3ccccc3n2)CC1

IC50 (HCT-116): 8.99 µM
IC50 (A549): > 50 µM
IC50 (MV4-11 [1]): 12.5 µM
SMILES: CN1CCC(Nc2ncc(C#N)c(Nc3ccc(Oc4ccccc4)cc3)n2)CC1

IC50 (HCT-116): 8.51 µM
IC50 (A549): 4.05 µM
IC50 (MV4-11 [1]): 5.13 µM
SMILES: CN1CCC(Nc2nc(Nc3ccc(Oc4ccccc4)cc3)c3ccccc3n2)CC1

IC50 (HCT-116): > 50 µM
IC50 (A549): > 50 µM
IC50 (MV4-11 [1]): > 50 µM
SMILES: Cc1nc(NC2CCN(C)CC2)nc(Nc2ccc(Oc3ccccc3)cc2)c1C(=O)O

IC50 (HCT-116): > 50 µM
IC50 (A549): 10.6 µM
IC50 (MV4-11 [1]): 35.8 µM
SMILES: NC(=O)c1cnc(N2CCCC2)nc1Nc1ccc(Oc2ccccc2)cc1

IC50 (HCT-116): > 50 µM
IC50 (A549): > 50 µM
IC50 (MV4-11 [1]): 7.19 µM
SMILES: CC(C)N1CCC(Nc2ncc(C#N)c(Nc3ccc(Oc4ccccc4)cc3)n2)CC1

IC50 (in vitro): 40.2 µM
IC50 [8]: > 100 µM
IC50 (HCT-116): 3.14 µM
IC50 (A549): 7.73 µM
IC50 (MV4-11 [1]): 0.59 µM
SMILES: CC(C)N1CCC(Nc2ncc(C(N)=O)c(Nc3ccc(Oc4ccccc4)cc3)n2)CC1
Activity (MV4-11 [16]): 82.96%
Activity (MV4-11 [17]): Active
inhibition at 100 µM (c-Kit): 17.5%
Activity (MV4-11 [18]): Active
viability at 0.2 µM (MV4-11 [3]): 78.5%
Activity (MV4-11 [19]): Dose-dependent-effect
Activity (MV4-11 [20]): Dose-dependent-effect
Activity (MV4-11 [5]): 0.3%
Activity (MV4-11 [21]): 5.7%
Activity (MV4-11 [6]): 20.08%
Activity (MV4-11 [7]): 75.47%
Activity (MV4-11 [22]): 0.8%
Activity (MV4-11 [23]): 11.9%
Activity (MV4-11 [24]): 35.8%
Activity (MV4-11 [9]): 96.2%
Activity (MV4-11 [25]): 89.91%
Activity (MV4-11 [26]): 94.9%
Activity (MV4-11 [27]): 51.7%
Activity (MV4-11 [28]): 86.6%
Activity (MV4-11 [29]): Dose-dependent-effect
viability at 2 µM (MV4-11 [30]): 32.8%
Activity (MV4-11 [11]): 4.45%
Activity (MV4-11 [31]): 50.5%
Activity (MV4-11 [12]): 3.8%
Activity (MV4-11 [13]): 15.1%
Activity (MV4-11 [32]): 13.1%
viability at 5 µM (MV4-11 [33]): 11.7%
Activity (MV4-11 [14]): 6%
Activity (MV4-11 [34]): 5%
Activity (MV4-11 [35]): 16.4%
Activity (MV4-11 [36]): 5.41%
Activity (MV4-11 [37]): 4.39%
Activity (MV4-11 [38]): 0.3%

IC50 (HCT-116): 23.3 µM
IC50 (A549): 20 µM
IC50 (MV4-11 [1]): 7.68 µM
SMILES: NC(=O)c1cnc(NC2CCCC2)nc1Nc1ccc(Oc2ccccc2)cc1

SMILES: CN1CCC(N(C)c2ncc(C(N)=O)c(Nc3ccc(Oc4ccccc4)cc3)n2)CC1
IC50 (HCT-116): 3.93 µM
IC50 (A549): 7.67 µM
IC50 (MV4-11 [1]): 0.66 µM

SMILES: CN1CCC(N(C)c2ncc(C#N)c(Nc3ccc(Oc4ccccc4)cc3)n2)CC1
IC50 (HCT-116): 5.99 µM
IC50 (A549): 12.5 µM
IC50 (MV4-11 [1]): 2.09 µM

IC50 (HCT-116): 1.35 µM
IC50 (A549): 7.86 µM
IC50 (MV4-11 [1]): 5.36 µM
SMILES: CCOC(=O)c1c(C)nc(NC2CCN(C)CC2)nc1Nc1ccc(Oc2ccccc2)cc1

IC50 (HCT-116): > 50 µM
IC50 (A549): > 50 µM
IC50 (MV4-11 [1]): 35.2 µM
SMILES: N#Cc1cnc(NC2CCCC2)nc1Nc1ccc(Oc2ccccc2)cc1
